Here are results for 2 compounds from US7064133B2, “Quinoline derivatives process of synthesis and medicaments containing these derivatives” (Bioalliance Pharma, priority 2001, dated 2006).

Assay type in all cases: cell-based
One data set relates to HeLa. As to the kind of experiment: Cytotoxicity, MTT to formazan test, adherent cells. To be noted: at 500 μM. As for the experimental part: (§1) The toxicity of the compounds is evaluated by a test of biotransformation of MTT to formazan by cellular mitochondrial dehydrogenases.
(Tetrazolium assays rely on reduction of a dye to a coloured formazan, in cell work by metabolically active cells.)

A further data set deals with CEM. The experiment in a line: Cytotoxicity, MTT to formazan test, cells in suspension. To be noted: at 500 μM. As for the experimental part:
as §1

Data set [1] relates to integration of viral DNA into the host genome. As to the kind of experiment: Inhibition of the integration of viral DNA into the host genome (PCR, densitometry) in infected CEM cells. To be noted: 24 hours. Here is the method:
This test consists in bringing CEM cells into contact with the supernatant of infected cells containing the infectious virions. After 2 hours, the cells are washed and placed again in RPMI medium containing the compound according to the invention for 24 hours (BioA53). The DNA of the cells is then extracted using a genomic DNA preparation kit (QiaBlood, Qiagen™). This DNA is the target for PCR amplifications aimed at evaluating, on the one hand, the quantity of total viral DNA present in the solution, and, on the other hand, the quantity of viral DNA integrated into the cellular genome. The latter amplification takes place in two stages: the first step uses a PCR primer homologous to a sequence of the retroviral DNA; the second primer is homologous to the repetitive genomic Alu sequences. The second stage is a nested PCR which makes it possible to visualize the retroviral DNA.
The quantity of DNA is evaluated by densitometry after separation of the amplification products on agarose gel.

As to `O=C(NCc1ccc(O)cc1O)c1ccc2ccc(C(=O)[O-])c(O)c2n1.[Na+]` [BioA163, sodium 2-(2,4-dihydroxybenzylcarbamoyl)-8-hydroxyquinoline-7-carboxylate], the “cytotoxicity (MTT)” value in the data set with HeLa and in the data set on CEM was “lacks cytotoxicity” throughout.
With `O=C(NCc1ccc(O)c(O)c1)c1ccc2ccc(C(=O)[O-])c(O)c2n1.[Na+]` [BioA53, sodium 2-(3,4-dihydroxybenzylcarbamoyl)-8-hydroxyquinoline-7-carboxylate], the “cytotoxicity (MTT)” value in the data set with HeLa and with CEM was “lacks cytotoxicity” each time. Moreover, the “decrease in the quantity of DNA integrated” value in data set [1] (50 μM, CEM cells) is “at least 80%”. Besides, the “inhibition of DNA integrated” value in data set [1] (100 μM, CEM cells) is listed as “inhibition of the entire DNA integrated”. For the same compound, the “quantity of total viral DNA” value in data set [1] (treatment of CEM cells with the compound) was “not affected”.
